# Test system: antigen specific CD8^+ T cells
# Experiment: IL-21 addition to NEO-STIM.RNA cultures
# Assay type: cell-based, human
# Source text: In order to improve the NEO-STIM protocol using RNA, IL-21 was explored as an addition to the protocol.
substance,measurement,setting,value
IL-21: cytokine added to the NEO-STIM RNA protocol,"hit rate, neoantigen specific frequency and cell expansion","NEO-PTC-01.RNA, healthy donor, day 14 read-out","increased hit rate, neoantigen specific frequency and cell expansion"
same,central memory phenotype in antigen specific CD8^+ T cells,NEO-STIM,increases central memory phenotype in antigen specific CD8^+ T cells
same,Tcm population,NEO-STIM.RNA,increases Tcm population in our NEO-STIM.RNA cultures
same,expansion of cultures,NEO-STIM.RNA,improves the expansion of NEO-STIM.RNA cultures
same,priming of specific T cells,NEO-STIM.RNA,improves the priming of specific T cells in NEO-STIM.RNA cultures
